Laboratory results published in PMC7714403 (JCI Insight, 2020).
Where two headings read alike, the source gives them in different places.

Columns and labels:
Experiment in all cases: KiNativ, MOLM13 live cells
Format in all cases: cell-based
PRPK = PRPK (Homo sapiens, UniProt Q96S44); conditions: MOLM-13; 100 nM, 2 hours; ATP Loop; read-out: Inhibition vs DMSO
Description: (§1) Samples were analyzed by KiNativ in situ kinase profiling by ActivX Biosciences.

NEK8 = NEK8 (Homo sapiens, UniProt Q86SG6); conditions: MOLM-13; 100 nM, 2 hours; Lys2; read-out: Inhibition vs DMSO
Description: as §1

RSK2 domain2 = target: T1, RSK2 domain2 (Homo sapiens, UniProt P51812); conditions: MOLM-13; 100 nM, 2 hours; Lys2; read-out: Inhibition vs DMSO
T1 construct: RSK2 domain2
Description: as §1

CDK9 = CDK9 (Homo sapiens, UniProt P50750); conditions: MOLM-13; 100 nM, 2 hours; ATP Loop; read-out: Inhibition vs DMSO
Description: as §1

CDK6 = CDK6 (Homo sapiens, UniProt Q00534); conditions: MOLM-13; 100 nM, 2 hours; Lys2; read-out: Inhibition vs DMSO
Description: as §1

NEK2 = NEK2 (Homo sapiens, UniProt P51955); conditions: MOLM-13; 100 nM, 2 hours; Lys2; read-out: Inhibition vs DMSO
Description: as §1

AKT1 = AKT1 (Homo sapiens, UniProt P31749); conditions: MOLM-13; 100 nM, 2 hours; ATP Loop; read-out: Inhibition vs DMSO
Description: as §1

PCTAIRE1 = PCTAIRE1 (Homo sapiens, UniProt Q00536); conditions: MOLM-13; 100 nM, 2 hours; Lys1; read-out: Inhibition vs DMSO
Description: as §1

RSK1 domain2 = target: T2, RSK1 domain2 (Homo sapiens, UniProt Q15418); conditions: MOLM-13; 100 nM, 2 hours; Lys2; read-out: Inhibition vs DMSO
T2 construct: RSK1 domain2
Description: as §1

NDR1 = NDR1 (Homo sapiens, UniProt Q15208); conditions: MOLM-13, 2 h, 100 nM
Description: as §1

TYK2 domain2 = target: T3, TYK2 domain2 (Homo sapiens, UniProt P29597); conditions: 100 nM, 2 hours; Activation Loop
T3 construct: TYK2 domain2
Description: as §1

CDK4 = CDK4 (Homo sapiens, UniProt P11802); conditions: MOLM-13; 100 nM, 2 hours; Lys2; read-out: Inhibition vs DMSO
Description: as §1

PIP4K2A = PIP4K2A (Homo sapiens, UniProt P48426); conditions: MOLM-13; 100 nM, 2 hours; ATP; read-out: Inhibition vs DMSO
Description: as §1

MAP2K4 = target: T4, MAP2K4 (Homo sapiens, UniProt P45985); conditions: MOLM-13, 2 h, 100 nM
T4 sequence (P45985 1-399): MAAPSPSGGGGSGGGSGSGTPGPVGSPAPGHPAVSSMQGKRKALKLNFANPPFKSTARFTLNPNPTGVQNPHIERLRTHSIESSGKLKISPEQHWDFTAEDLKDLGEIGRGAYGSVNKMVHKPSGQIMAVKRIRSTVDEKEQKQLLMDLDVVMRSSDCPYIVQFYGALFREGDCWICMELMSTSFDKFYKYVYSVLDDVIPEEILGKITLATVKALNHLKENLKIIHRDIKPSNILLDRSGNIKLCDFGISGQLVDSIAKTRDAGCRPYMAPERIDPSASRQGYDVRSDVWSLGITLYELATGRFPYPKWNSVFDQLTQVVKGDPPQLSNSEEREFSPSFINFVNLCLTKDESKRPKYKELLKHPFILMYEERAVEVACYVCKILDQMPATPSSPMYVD
Description: as §1

ZAP70 = target: T5, ZAP70 (Homo sapiens, UniProt P43403); conditions: MOLM-13; 100 nM, 2 hours; Activation Loop; read-out: Inhibition vs DMSO
T5 sequence (P43403 1-619): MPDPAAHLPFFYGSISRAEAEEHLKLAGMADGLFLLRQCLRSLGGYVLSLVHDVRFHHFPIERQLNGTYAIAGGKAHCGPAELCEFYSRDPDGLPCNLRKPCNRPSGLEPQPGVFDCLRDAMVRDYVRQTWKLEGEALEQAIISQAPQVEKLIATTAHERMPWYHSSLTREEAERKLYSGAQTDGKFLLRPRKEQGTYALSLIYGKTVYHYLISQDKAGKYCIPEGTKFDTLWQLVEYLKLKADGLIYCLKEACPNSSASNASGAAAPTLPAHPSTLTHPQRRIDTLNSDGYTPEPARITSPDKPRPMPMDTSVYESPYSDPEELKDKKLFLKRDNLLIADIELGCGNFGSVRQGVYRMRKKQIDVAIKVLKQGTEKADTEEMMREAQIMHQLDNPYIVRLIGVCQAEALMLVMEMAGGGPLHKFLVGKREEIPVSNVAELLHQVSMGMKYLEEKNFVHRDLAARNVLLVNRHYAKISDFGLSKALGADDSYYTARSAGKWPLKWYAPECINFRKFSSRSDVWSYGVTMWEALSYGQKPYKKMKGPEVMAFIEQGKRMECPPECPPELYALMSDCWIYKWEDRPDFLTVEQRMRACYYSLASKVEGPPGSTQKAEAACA
Description: as §1

PIP5K3 = PIP5K3 (Homo sapiens, UniProt Q9Y2I7); conditions: 100 nM, 2 hours; ATP
Description: as §1

PI4KB = PI4KB (Homo sapiens, UniProt Q9UBF8); conditions: MOLM-13, 2 h, 100 nM, ATP, read-out: Inhibition vs DMSO
Description: as §1

MST3 = MST3 (Homo sapiens, UniProt Q9Y6E0); conditions: 100 nM, 2 hours; Lys2
Description: as §1

[1] = Lys1, read-out: Inhibition vs DMSO
[2] = Lys2, read-out: Inhibition vs DMSO

Chain of NDR1 (Q15208 whole entry): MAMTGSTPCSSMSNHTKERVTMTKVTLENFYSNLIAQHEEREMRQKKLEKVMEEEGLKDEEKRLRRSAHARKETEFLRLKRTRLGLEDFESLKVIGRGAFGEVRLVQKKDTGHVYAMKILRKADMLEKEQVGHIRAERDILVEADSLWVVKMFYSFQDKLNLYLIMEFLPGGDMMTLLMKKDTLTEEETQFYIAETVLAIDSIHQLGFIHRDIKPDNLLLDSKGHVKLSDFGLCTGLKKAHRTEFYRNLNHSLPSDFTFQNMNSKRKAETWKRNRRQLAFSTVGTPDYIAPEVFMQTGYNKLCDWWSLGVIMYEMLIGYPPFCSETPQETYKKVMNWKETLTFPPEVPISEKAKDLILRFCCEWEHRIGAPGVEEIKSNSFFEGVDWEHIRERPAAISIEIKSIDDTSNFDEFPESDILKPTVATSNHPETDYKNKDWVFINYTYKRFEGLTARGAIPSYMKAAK
Chain of PI4KB (Q9UBF8 whole entry): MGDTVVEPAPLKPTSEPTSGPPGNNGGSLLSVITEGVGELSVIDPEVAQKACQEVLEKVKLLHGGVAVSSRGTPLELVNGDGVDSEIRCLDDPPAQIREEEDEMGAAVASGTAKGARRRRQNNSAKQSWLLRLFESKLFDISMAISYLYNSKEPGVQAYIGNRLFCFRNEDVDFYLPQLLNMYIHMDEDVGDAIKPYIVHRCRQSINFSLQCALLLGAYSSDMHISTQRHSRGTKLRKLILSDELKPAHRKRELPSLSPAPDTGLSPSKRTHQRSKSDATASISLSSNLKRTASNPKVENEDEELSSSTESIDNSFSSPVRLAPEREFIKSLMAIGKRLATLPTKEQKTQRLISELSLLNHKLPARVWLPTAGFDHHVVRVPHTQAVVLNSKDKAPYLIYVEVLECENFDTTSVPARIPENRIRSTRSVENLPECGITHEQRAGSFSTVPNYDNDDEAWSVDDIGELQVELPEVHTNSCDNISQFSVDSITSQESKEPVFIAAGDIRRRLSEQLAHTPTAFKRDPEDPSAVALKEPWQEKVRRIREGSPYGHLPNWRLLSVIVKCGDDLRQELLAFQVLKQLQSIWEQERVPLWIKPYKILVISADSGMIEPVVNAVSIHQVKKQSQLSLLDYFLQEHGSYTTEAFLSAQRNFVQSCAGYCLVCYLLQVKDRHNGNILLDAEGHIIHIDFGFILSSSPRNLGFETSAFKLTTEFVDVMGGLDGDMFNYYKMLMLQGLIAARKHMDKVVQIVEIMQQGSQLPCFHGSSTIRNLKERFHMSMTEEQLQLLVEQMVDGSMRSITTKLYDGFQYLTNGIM
Chain of CDK9 (P50750 whole entry): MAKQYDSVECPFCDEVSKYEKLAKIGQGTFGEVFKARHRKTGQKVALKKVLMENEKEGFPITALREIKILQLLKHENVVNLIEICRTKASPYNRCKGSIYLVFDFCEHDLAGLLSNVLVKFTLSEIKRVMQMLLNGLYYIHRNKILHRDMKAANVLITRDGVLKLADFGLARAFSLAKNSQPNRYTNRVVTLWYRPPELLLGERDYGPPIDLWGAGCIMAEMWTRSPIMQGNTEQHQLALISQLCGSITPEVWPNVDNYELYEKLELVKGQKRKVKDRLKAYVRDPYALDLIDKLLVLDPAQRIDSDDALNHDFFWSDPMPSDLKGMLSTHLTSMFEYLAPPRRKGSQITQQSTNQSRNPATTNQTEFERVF
Chain of CDK9 (O60563 whole entry partner): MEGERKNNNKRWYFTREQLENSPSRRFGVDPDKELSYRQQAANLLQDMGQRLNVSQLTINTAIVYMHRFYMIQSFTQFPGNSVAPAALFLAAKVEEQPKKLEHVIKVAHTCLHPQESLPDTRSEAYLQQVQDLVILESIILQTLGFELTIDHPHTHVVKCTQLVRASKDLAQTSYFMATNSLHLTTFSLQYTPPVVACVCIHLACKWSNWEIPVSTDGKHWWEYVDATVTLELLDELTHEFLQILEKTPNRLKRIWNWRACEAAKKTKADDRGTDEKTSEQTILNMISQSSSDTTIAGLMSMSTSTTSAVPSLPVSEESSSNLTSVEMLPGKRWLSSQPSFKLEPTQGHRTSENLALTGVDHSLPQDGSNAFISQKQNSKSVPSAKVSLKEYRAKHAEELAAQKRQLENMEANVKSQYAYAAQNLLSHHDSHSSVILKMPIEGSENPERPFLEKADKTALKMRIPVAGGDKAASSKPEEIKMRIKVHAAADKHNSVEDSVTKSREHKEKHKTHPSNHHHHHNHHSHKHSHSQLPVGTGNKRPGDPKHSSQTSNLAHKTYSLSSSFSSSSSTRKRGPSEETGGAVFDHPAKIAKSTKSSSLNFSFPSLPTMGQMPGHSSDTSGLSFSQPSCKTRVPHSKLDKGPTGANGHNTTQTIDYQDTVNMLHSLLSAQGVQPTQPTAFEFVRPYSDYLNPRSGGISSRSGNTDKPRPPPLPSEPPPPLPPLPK
Chain of PCTAIRE1 (Q00536 whole entry): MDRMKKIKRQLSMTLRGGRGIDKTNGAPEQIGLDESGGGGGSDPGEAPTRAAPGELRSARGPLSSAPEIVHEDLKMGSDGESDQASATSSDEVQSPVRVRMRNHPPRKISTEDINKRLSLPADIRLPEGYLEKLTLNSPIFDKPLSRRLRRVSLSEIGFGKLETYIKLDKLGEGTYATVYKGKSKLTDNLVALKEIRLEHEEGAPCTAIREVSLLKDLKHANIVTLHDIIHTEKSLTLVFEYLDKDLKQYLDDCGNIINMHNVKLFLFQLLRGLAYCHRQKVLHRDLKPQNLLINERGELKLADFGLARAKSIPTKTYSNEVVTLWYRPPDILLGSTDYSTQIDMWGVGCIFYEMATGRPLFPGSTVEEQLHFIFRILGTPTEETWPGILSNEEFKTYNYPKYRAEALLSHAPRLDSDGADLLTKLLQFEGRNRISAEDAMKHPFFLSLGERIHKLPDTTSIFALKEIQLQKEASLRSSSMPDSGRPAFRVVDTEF
Chain of CDK4 (P11802 2-303 limits assumed): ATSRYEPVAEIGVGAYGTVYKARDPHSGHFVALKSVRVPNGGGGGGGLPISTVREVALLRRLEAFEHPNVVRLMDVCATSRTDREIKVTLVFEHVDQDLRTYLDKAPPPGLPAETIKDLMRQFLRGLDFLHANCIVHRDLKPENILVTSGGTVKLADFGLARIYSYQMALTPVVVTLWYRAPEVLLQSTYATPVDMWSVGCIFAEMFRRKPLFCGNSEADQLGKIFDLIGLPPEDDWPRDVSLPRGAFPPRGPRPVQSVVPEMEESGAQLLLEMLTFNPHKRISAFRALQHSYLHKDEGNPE
T3 sequence (P29597 whole entry, the tested form may be a part): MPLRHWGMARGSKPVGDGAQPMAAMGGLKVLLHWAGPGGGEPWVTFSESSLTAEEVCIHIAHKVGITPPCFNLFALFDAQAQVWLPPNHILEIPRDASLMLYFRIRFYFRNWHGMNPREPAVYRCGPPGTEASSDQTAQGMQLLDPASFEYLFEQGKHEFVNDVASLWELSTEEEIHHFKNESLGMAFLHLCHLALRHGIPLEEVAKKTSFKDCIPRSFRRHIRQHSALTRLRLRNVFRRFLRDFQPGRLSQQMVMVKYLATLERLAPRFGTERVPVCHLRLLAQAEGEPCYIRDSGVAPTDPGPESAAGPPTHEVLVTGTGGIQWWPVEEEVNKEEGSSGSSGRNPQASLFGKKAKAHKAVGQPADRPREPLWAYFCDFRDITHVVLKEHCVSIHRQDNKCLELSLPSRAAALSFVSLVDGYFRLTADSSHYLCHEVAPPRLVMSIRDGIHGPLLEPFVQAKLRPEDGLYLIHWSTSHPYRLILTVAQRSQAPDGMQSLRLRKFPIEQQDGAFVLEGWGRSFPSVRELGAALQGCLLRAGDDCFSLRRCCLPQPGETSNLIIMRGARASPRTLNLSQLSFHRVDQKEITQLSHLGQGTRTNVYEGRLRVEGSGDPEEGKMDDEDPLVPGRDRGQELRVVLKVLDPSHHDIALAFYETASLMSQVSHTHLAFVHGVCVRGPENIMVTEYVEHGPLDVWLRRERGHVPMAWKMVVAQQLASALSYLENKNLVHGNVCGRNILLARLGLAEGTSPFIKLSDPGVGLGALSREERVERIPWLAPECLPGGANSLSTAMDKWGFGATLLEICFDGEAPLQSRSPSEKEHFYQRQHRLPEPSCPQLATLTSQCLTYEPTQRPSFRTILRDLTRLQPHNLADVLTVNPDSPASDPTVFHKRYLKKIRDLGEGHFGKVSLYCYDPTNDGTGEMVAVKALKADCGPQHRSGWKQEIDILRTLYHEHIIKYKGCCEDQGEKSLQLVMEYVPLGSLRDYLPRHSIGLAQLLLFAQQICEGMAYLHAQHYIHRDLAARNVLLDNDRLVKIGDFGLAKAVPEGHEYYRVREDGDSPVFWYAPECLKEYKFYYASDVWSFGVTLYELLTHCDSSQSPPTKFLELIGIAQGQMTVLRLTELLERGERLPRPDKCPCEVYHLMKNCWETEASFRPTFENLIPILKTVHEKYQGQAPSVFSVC
Chain of PIP4K2A (P48426 whole entry): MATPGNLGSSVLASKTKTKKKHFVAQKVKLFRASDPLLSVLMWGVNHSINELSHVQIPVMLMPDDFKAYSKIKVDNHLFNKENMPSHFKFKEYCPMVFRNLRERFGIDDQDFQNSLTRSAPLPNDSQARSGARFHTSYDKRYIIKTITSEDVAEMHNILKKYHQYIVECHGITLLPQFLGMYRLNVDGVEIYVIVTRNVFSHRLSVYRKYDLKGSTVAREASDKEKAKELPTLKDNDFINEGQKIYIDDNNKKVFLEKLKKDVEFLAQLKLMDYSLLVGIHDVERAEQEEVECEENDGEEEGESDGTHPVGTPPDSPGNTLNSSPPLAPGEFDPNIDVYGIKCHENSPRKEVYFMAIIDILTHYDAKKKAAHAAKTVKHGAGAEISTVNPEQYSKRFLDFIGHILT
Chain of PRPK (Q96S44 whole entry): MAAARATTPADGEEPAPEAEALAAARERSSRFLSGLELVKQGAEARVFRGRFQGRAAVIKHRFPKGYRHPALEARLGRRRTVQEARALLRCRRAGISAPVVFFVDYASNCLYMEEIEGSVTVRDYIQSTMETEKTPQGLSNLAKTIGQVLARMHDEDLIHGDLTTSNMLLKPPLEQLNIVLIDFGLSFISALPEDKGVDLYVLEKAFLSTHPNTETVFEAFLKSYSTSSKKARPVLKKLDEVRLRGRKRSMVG

CN1CCN(Cc2ccc(Nc3ncc(Cl)c(Nc4ccccc4S(=O)(=O)N(C)C)n3)cc2)CC1 [TP-0903]
inhibition at 0.1 µM (PRPK): 29.4% | inhibition at 0.1 µM (NEK8): -5.3% | inhibition at 0.1 µM (RSK2 domain2): -47.6% | inhibition at 0.1 µM (CDK9): -34.4% | inhibition at 0.1 µM (CDK6): 80.8% | inhibition at 0.1 µM (NEK2): -4.6% | inhibition at 0.1 µM (AKT1): -54.3% | inhibition at 0.1 µM (PCTAIRE1): 69.6% | inhibition at 0.1 µM (RSK1 domain2): -19.8% | inhibition at 0.1 µM (NDR1; [1]): 3.7% | inhibition at 0.1 µM (NDR1; [2]): -11.4% | Inhibition vs DMSO (TYK2 domain2): -0.9% | inhibition at 0.1 µM (CDK4): 9.8% | inhibition at 0.1 µM (PIP4K2A): -28.1% | inhibition at 0.1 µM (MAP2K4; Activation Loop, read-out: Inhibition vs DMSO): 4.3% | inhibition at 0.1 µM (MAP2K4; [1]): -38.6% | inhibition at 0.1 µM (MAP2K4; [2]): 4.1% | inhibition at 0.1 µM (ZAP70): 26.3% | Inhibition vs DMSO (PIP5K3): 50.9% | inhibition at 0.1 µM (PI4KB; LLSVIVKCGDDLRQELLAFQVLK): -5.9% | inhibition at 0.1 µM (PI4KB; VPHTQAVVLNSKDK): -12.3% | Inhibition vs DMSO (MST3): 55.3%
